Experimental data from patent US20090264533A1, “Methods and Compositions for Modulating RHO-Mediated Gene Transcription” (priority 2005, published 2009).
Where “and” joins values, the source holds several entries; their conditions need not be identical. Equal entries are not always repeated. Entries after “also recorded” stand apart in the source; their conditions may differ. Where two headings read alike, the source gives them in different places.

Experiments:
SKOV-3 cells [1] = experiment: Matrigel matrix invasion by SKOV-3 cells; assay type: cell-based
Procedure: FIG. 11 CCG-1423 inhibits the spontaneous matrix invasion by PC-3 cells. Top) One prostate and three ovarian cancer lines (50,000 cells per well) were lifted with trypsin, suspended in serum free medium and plated on 24-well Matrigel inserts with (solid) or without (hatched) 30 μM LPA in the lower chamber. After 24 hours, cells above the filter were wiped off and the remaining cells were fixed, stained, and counted to determine the number of cells that had invaded the Matrigel. Bottom) Matrigel invasion by PC-3 cells (-LPA) and SKOV-3 cells (+30 μM LPA) was tested in the presence of the indicated concentrations of CCG-1423.

[2] = test system: SKOV-3 ovarian cancer cell line; experiment: BrdU incorporation in SKOV-3 cells; assay type: cell-based
RhoC = RhoC transcriptional signal, SRE-Luciferase / CMV-Renilla dual reporters (FIG. 6); assay type: cell-based; conditions: 6 micromolar, added 6 hours after transfection, read 16 hours later
Procedure: (§1) FIG. 6 CCG-1423 inhibits both RhoA and RhoC transcriptional signals. Cells were transfected with the dual reporters SRE-Luciferase and CMV-Renilla then 6 hours later, 6 micromolar CCG-1423 was added and reporter activity measured 16 hours later.

[3] = test system: PC-3 prostate cancer cells; experiment: DNA synthesis (BrdU incorporation) in PC-3 cells; assay type: cell-based, human; conditions: presence of serum
Procedure: FIG. 9 Serum and LPA stimulate DNA synthesis in PC-3 cells. PC-3 cells serum starved for 24 hours were treated for an additional 24 hours in the presence of serum (10% FBS) or the indicated concentrations of LPA. BrdU was added to the medium for the last 2 hours and incorporated BrdU detected in 96-well plates by immunostaining.
FIG. 10 CCG-1423 inhibits LPA- but not FBS-stimulated DNA synthesis in PC-3 prostate cancer cells.

SRE Luciferase = SRE Luciferase reporter with different rho pathway activators (PC-3 cells, FIG. 8, FIG. 13); assay type: cell-based, human; conditions: for luciferase expression induced by G13, LARG or constitutively active rhoA-GV: FIG. 8
Procedure: (§2) FIG. 8 Inhibition of reporter gene transcription in PC-3 cells. CCG 1423 (10 μM) acts at the transcriptional level inhibiting SRE Luciferase stimulated by both upstream (Gα13, LARG, and RhoA-GV) and downstream signals (MKL1).
FIG. 13. Inhibition by CCG-1423 of three different rho pathway activators (G13, rhoA-GV, and MKL1) with no effect on control reporter plasmid CMV-Renilla.
(§3) The point of action of these inhibitors in the assay was investigated by transfecting the cells with different activators of the pathway (rho, MKL1, and an activated SRF analog SRF-VP16). […] This is consistent with the known site of action of Latruculin. […] Thus, the compounds may be acting by inhibiting MKL- or SRF- or both MKL and SRF-dependent gene transcription. […] Regardless of the mechanism of action, the present invention describes a novel gene transcription inhibitor that selectively prevents MKL/SRF-mediated signals.

SKOV-3 cells [4] = experiment: Cell growth (WST1 absorbance) of SKOV-3 cells; assay type: cell-based
Procedure: PC-3 or SKOV-3 cells (2000 per well) were plated in medium containing 2% FBS. After growth overnight, the indicated concentrations of CCG-1423 were added from a DMSO stock (<1% final) and cells allowed to continue growing for an additional 7 days. Cell growth was measured by WST1 absorbance (similar to MTT). The IC50 values for PC-3 and SKOV-3 cells were 600 nM and 3 μM. The dotted line represents a no-cell blank.

GAL4-VP16 Luciferase = GAL4-VP16 Luciferase control reporter; assay type: cell-based
ras = experiment: ras-stimulated transcriptional signals (c-fos and SRE.L reporters, FIG. 14); assay type: cell-based; conditions: for ras-stimulated transcriptional signals: c-fos reporter, FIG. 14 bottom panel
Description: FIG. 14. […] The rho reporter SRE.L can also be activated by ras (probably via rho activation).

RhoA = RhoA transcriptional signal, SRE-Luciferase / CMV-Renilla dual reporters (FIG. 6); assay type: cell-based; conditions: 6 micromolar, added 6 hours after transfection, read 16 hours later
Procedure: as §1

[5] = test system: Gα13/LARG/SRE transcriptional signaling pathway; experiment: Gα13QL/LARG-stimulated SRE.L luciferase reporter assay (HTS) in HEK293T cells; assay type: cell-based, human; conditions: for Inhibition of G13/LARG-stimulated rho transcriptional signaling: FIG. 5
Procedure: FIG. 2 Optimization of HTS Assay. HEK293T cells in 10 cm dishes were co-transfected with 2×-SRE luciferase reporter plasmid (3000 ng) alone or with Gα13QL (5 ng constitutive active mutant) and LARG (150 ng) expression plasmids for 5 hours. Then, the cells were plated into 96-well, and serum-starved for approx. 18 hours (0.5% Fetal Bovine Serum, DMEM medium). Cells were lysed and assayed for luciferase activity via Steady-Glo reagent (Promega) and a luminometer.
In exemplary embodiments of the present invention, HEK293T cells were transiently transfected with a 2×SRE.L-luciferase reporter plasmid that responds selectively to rho signaling (Hill et al., Cell 81:1159-1170, 1995). […] This expression plasmid is specific for rho/MKL/SRF driven gene expression. To stimulate rho, the upstream activators G13 and LARG (FIG. 1) were used. A constitutively active Gα13Q226L plasmid was co-transfected, along with an N-terminal myc-tagged LARG plasmid from Dr. Tohru Kozasa.
To use the reporter assay readout for high throughput chemical inhibition studies, the assay was modified to accommodate chemical inhibitors. Transfection was performed in 10 cm dishes with Lipofectamine 2000. Five hours after transfection, the cells were trypsinized and 30,000 cells per well were transferred into sterile white flat-bottom 96-well plates pre-spotted with 1 μl of chemical compound in DMSO (10 μM final conc). Cells were grown overnight in low serum (0.5% FBS/DMEM medium) exposed to the chemical compounds (in 1% DMSO) for approximately 18 hours before luminescence was read with Steady-Glo luciferase reagent (Promega) in a Victor II plate reader. As a positive inhibitor control, 0.5 μM of Latrunculin B was added to 8 wells per plate. In addition, 8 wells were treated with DMSO only. Latrunculin B is a marine toxin from the Red Sea sponge that is known to sequester monomeric G-actin in the cell and block rho-mediated transcriptional events (Miralles et al., Cell 113:329-342, 2003). The percent inhibition of the Gα13 QL/LARG stimulated SRE-luciferase response was calculated by setting the mean of the negative control (DMSO only) at 0% and the mean of the positive control (Latrunculin B) at 100%. The Z′ score of the assay for high throughput screening was excellent at 0.7 (FIG. 2) indicating reproducibility well-suited to HTS studies.
(§4) An exemplary screen for small molecule inhibitors of the Gα13/LARG/SRE transcriptional signaling pathway utilized a 2000 compound subset of the Maybridge Diverse Chemical Compound Library at 10 μM in the firefly luciferase assay described above. SRE transcription was stimulated by co-transfection of the constitutively active Gα13QL with LARG. […] A cutoff of 75% inhibition was chosen to identify hits for inhibition of the Gα13/LARG/SRE transcriptional signaling pathway. A total of 39 out of 2000 compounds met this criterion. […] To address this issue, a dual luciferase method with a “flash” luciferase substrate plus CMV-Renilla was used as a non-SRF-dependent reporter to eliminate toxic compounds (Table 2). This screen yielded only 4 compounds that were active and specific for the SRE.L reporter signal.

PC-3 cells [6] = experiment: WST1 metabolism viability control for BrdU studies; assay type: cell-based, human; conditions: 10 uM, 18 hours of drug treatment, absence of serum
Procedure: Even more exciting are the effects of the novel inhibitors of the present invention on PC-3 cell functions (LPA-stimulated DNA synthesis, proliferation, and invasion). More particularly, it is shown that for the highly aggressive human PC-3 prostate cancer cell line, the novel inhibitors described herein inhibit proliferation, LPA-stimulated DNA synthesis, and matrix invasion. All of these effects occur at remarkably similar concentrations (IC50 900, 830, and 600 nM, respectively). This is also very similar to the concentration needed to inhibit rho-stimulated SRE.L luciferase expression in HEK293T cells (980 nM). […] Only at high concentrations (10 uM) is there any effect on proliferation or matrix invasion and there is no inhibition of BrdU incorporation as well.

CMV-Renilla = CMV-Renilla control reporter expression; assay type: cell-based
Procedure: as §1, §2, §4, §3

[7] = test system: RGS-rhoGEFs (LARG, PDZrhoGEF, p115rhoGEF); experiment: rhoGEF-stimulated SRE.L dual luciferase assay in HEK293 cells; assay type: cell-based, human; conditions: 0.5 μM
Procedure: Luciferase Assays—Twenty-four hours post-transfection with firefly and Renilla vectors, HEK293 cells were serum-starved (0.5% serum), and then at 48 h, luciferase activity was determined using the dual luciferase assay kit (Promega, Madison, Wis.) according to the manufacturer's instructions. The ratio of firefly to Renilla luciferase counts was calculated. Data are expressed as the percent of the control value (samples without siRNA).
In these studies, each rhoGEF plasmid DNA (p115, PDZ, or LARG) was introduced into HEK293T cells using LipofectAMINE 2000 in a 96-well plate along with the dual luciferase reporters (SRE.L and pRL-TK) and a panel of different rhoGEF siRNAs (+) or inverted mutant siRNAs (−). […] Firefly/Renilla ratios for the siRNAs (+ and −) were expressed as a percent of that for buffer controls with only the rhoGEF and reporter cDNAs transfected.

ROCK = experiment: Luciferase expression stimulated by transfecting in the kinase ROCK; assay type: cell-based
PC-3 cells [8] = experiment: Cell rounding assay in PC-3 cells; assay type: cell-based, human; conditions: 30 min
Procedure: Cell Rounding Assay—The day before transfection, PC-3 cells were grown on laminin-coated coverslips in 12-well plates until […]. Cells were then transfected with 0.2 μg of EGFP cDNA. To disrupt rho signaling GFP was co-transfected with either a C3 exotoxin expression vector (0.5 μg) or with 2.0 μg of the indicated siRNA or inverted control along with 8 μl/well of LipofectAMINE 2000. At 45 h post-transfection, cultures were changed to serum-free medium and 6 h later treated with either buffer, thrombin (100 nM), or LPA (50 μM) for 30 min. Cells were then fixed with 4% paraformaldehyde for 10 min and GFP images obtained using an Olympus fluorescence microscope with a 20× objective. Fluorescent cells were counted (100-300 per coverslip) and the percentage of rounded cells determined. Cell rounding at 30 min was dose-dependent (EC50 80 nM for thrombin and 50 μM for LPA) and reversible upon removal of thrombin for 45 min.
rho stimulates several types of cytoskeletal rearrangements. […] In these studies, at 48 h after transfection, cells were stimulated with thrombin (100 nM) or LPA (50 μM) for 30 min, fixed, and fluorescence images taken. […] At 48 h post-transfection cells were stimulated with thrombin or LPA and analyzed as described above. One-hundred green cells from each coverslip were counted, and the percentage of round cells was determined. […]

Molecule: CC(ONC(=O)c1cc(C(F)(F)F)cc(C(F)(F)F)c1)C(=O)Nc1ccc(Cl)cc1 (stereo not drawn) [CCG-1423]
- concentration at which there is any effect on matrix invasion (SKOV-3 cells [1]): 10 µM
- inhibition of BrdU incorporation [2]: no inhibition
- RhoC transcriptional signal (rhoC-stimulated luciferase expression) (RhoC): inhibits
- FBS (serum)-stimulated DNA synthesis [3]: not inhibited until high concentrations are reached
- luciferase expression activated by SRF-VP16 (SRE Luciferase): inhibited; also recorded: able to inhibit
- luciferase expression induced by MKL (SRE Luciferase): inhibited
- SRE Luciferase stimulated by upstream (Gα13, LARG, and RhoA-GV) and downstream signals (MKL1) (SRE Luciferase; 10 μM, PC-3 cells): inhibiting
- SRF-VP16 Luciferase (SRE Luciferase; 10 μM, PC-3 cells): no effect
- luciferase expression induced by G13, LARG or constitutively active rhoA-GV (SRE Luciferase): inhibited
- three different rho pathway activators (G13, rhoA-GV, and MKL1) (SRE Luciferase; FIG. 13): Inhibition
- concentration at which there is any effect on proliferation (SKOV-3 cells [4]): 10 µM
- IC50 (SKOV-3 cells [4]; 2% FBS, 7 days, WST1): 3000 nM
- Gal-4-VP16 Luciferase signal (GAL4-VP16 Luciferase; 3 μM): only a slight inhibitory effect
- GAL4-VP16 Luciferase (GAL4-VP16 Luciferase; 10 μM, PC-3 cells): no effect
- ras-stimulated transcriptional signals (ras): inhibition
- RhoA transcriptional signal (SRE-Luciferase) (RhoA): blocking; also recorded: inhibits
- Inhibition of G13/LARG-stimulated rho transcriptional signaling [5]: Inhibition
- IC50 ([5]; HEK293T cells, dose response curves, read-out: IC50, inhibition of G13/LARG (rho-) stimulated SRE.L luciferase expression): ~1000 nM and 980 nM and 800 nM
- IC50 ([5]; HTS reporter assay, read-out: IC50, inhibition of MKL/SRF-dependent gene transcription): ~800 nM
- viable cells (WST1 metabolism) (PC-3 cells [6]): no decrease in viable cells
- CMV-Renilla expression (CMV-Renilla; 3 μM): did not inhibit
- CMV-driven Renilla expression (CMV-Renilla; 10 μM, PC-3 cells): does not inhibit
- control reporter CMV-Renilla expression (CMV-Renilla; concentration not given): not inhibited; also recorded: no effect

Molecule: C/C1=C/C(=O)O[C@@H]2C[C@@H](CC[C@H](C)/C=C\CC1)O[C@@](O)([C@@H]1CSC(=O)N1)C2 [Latrunculin B, reference compound]
- rhoGEF-stimulated luciferase signal [7]: completely eliminated
- luciferase expression activated by SRF-VP16 (SRE Luciferase): did not inhibit
- luciferase expression induced by G13, LARG or constitutively active rhoA-GV (SRE Luciferase): fully inhibits
- SRE.L rho reporter signal activated by ras (ras; FIG. 14): blocked
- ras-stimulated transcriptional signals (ras): not
- Inhibition of G13/LARG-stimulated rho transcriptional signaling [5]: Inhibition

Molecule: C[C@@H](N)[C@H]1CC[C@H](C(=O)Nc2ccncc2)CC1 [Y-27632, reference compound]
- luciferase expression stimulated by transfecting in the kinase ROCK (ROCK): fully inhibited
- Inhibition of G13/LARG-stimulated rho transcriptional signaling [5]: only partially blocked; also recorded: Inhibition

Molecule: lysophosphatidic acid [LPA, reference compound]
- EC50 (PC-3 cells [8]): 50000 nM

Molecule: thrombin
- EC50 (PC-3 cells [8]): 80 nM
